Source: patent US10947511B2, “Differentiation of human embryonic stem cells into pancreatic endocrine cells using thyroid hormone and/or alk5, an inhibitor of tgf-beta type 1 receptor” (Janssen Biotech, Inc., priority 2012, dated 2021)
Entries after “also recorded” stand apart in the source; their conditions may differ.

Columns and labels:
[1] = tested on: human embryonic stem cell line H1; test: Immunostaining for HB9 and NKX6.1 at Stage 6, control vs T3 treated cultures (Example 2); format: cell-based
Procedure: (§1) All primers were purchased from Applied Biosystems.
(§2) Cultures were differentiated into cells expressing markers characteristic of pancreatic endoderm/endocrine precursor cells by the protocol outlined below. • a. […] SD208 is 2-(5-Chloro-2-fluorophenyl)pteridin-4-yl]pyridin-4-yl-amine) having the structure of formula I, and disclosed in Molecular Pharmacology 2007, 72:152-161. SD208 is a 2,4-disubstituted pteridine, ATP-competitive inhibitor of the TGF-βR I kinase.
(§3) In some cultures, 1 μM T3 (T6397, Sigma, MO) was added at Stages 4 through 6. At the end of Stages 4 through 6, the control and treated cultures were analyzed by FACS and immunostaining. Furthermore, mRNA was collected for the control and treated cultures at Stages 2 through 6.

[2] = tested on: human embryonic stem cell line H1; test: Immunostaining for NKX6.1 and HB9 at Stage 6 day 6, T3 dose response (Example 4); format: cell-based; details: 0-1000 nM T3 at Stages 5 and 6, dose dependent
Text: as §1
Forty-eight hours post-seeding, cultures were washed in incomplete PBS (phosphate buffered saline without Mg or Ca). Cultures were differentiated into cells expressing markers characteristic of pancreatic endoderm/endocrine precursor cells by the protocol outlined below. • a.

[3] = tested on: human embryonic stem cell line H1; test: Real-time PCR of marker genes in H1 cells differentiated as in Example 2, T3 added at Stages 4 through 6; format: cell-based
Procedure: as §1, §2, §3

[4] = T3 vs T4; cited from earlier work
[5] = in the blood; cited from earlier work
[6] = 1 μM T3 added at Stages 4 through 6, real-time PCR
[7] = 1 μM T3 added at Stages 4 through 6, real-time PCR vs control
[8] = 1 μM T3 addition, real-time PCR

Row | SMILES | number of HB9 positive cells ([1]; Stage 6, T3 treated group vs control) | number of NKX6.1 positive cells showing expression of HB9 ([1]; T3 treated cultures) | number of HB9 positive cells in the NKX6.1 positive pancreatic endoderm precursor cells [2] | insulin expression ([3]; 1 μM T3 added at Stages 4 through 6, at Stage 5, real-time PCR) | NKX2.2 expression [3, 6] | NKX6.1 expression [3, 6] | PDX1 expression [3, 6] | ghrelin expression [3, 7] | glucagon expression [3, 7] | somatostatin expression [3, 7] | CDX2 (intestine marker) expression [3, 8] | SOX2 (stomach marker) expression [3, 8] | albumin (liver marker) expression [3, 8] | potency relative to T4 [4] | half-life relative to T3 [5]
1 | N[C@@H](Cc1cc(I)c(Oc2ccc(O)c(I)c2)c(I)c1)C(=O)O [T3, triiodothyronine] | increases; also recorded: significant increase | increased number | significantly enhanced | moderately increasing | significantly decreased | apparently not affecting | apparently not affecting | significantly down regulated | significantly down regulated | significantly down regulated | not affecting | suppressed | suppressed | three to four times more potent than T4 | 
2 | N[C@@H](Cc1cc(I)c(Oc2cc(I)c(O)c(I)c2)c(I)c1)C(=O)O [T4, thyroxine] |  |  |  |  |  |  |  |  |  |  |  |  |  |  | longer half-life than T3
